Experimental findings from ChEMBL document CHEMBL4402557, “Nidufexor (LMB763), a Novel FXR Modulator for the Treatment of Nonalcoholic Steatohepatitis” (J Med Chem, 2020) are described below.

In brackets after ≈: the same amount, converted by molar mass.

A short description of series [1]: Solubility of compound in pH 6.5 FASSIF at 2 mg measured for 5 to 60 mins by UV spectroscopic method. It is filed as physicochemical.
Series [2] in a line: Volume of distribution at steady state in Wistar rat at 3 mg/kg, iv. It is filed as ADME, organism-based. Conditions: in vivo, read-out: Vdss.
The nature of series [3]: Oral bioavailability in Wistar rat at 10 mg/kg in presence of PEG 300/D5W(3:1). It is filed as ADME, organism-based. Conditions: in vivo.
Series [4] can be described thus: Oral bioavailability in Wistar rat at 10 mg/kg in presence of TRIS salt. The format is ADME, organism-based. Conditions: in vivo.
Series [5] is described as follows: Cmax in Wistar rat at 10 mg/kg, po. It is filed as ADME, organism-based. Set-up: dose 10 mg/kg, route oral. The settings on record: in vivo.
Series [6] is described as follows: Half life in Wistar rat at 10 mg/kg, po. It is filed as ADME, organism-based. The settings on record: in vivo.
A short description of series [7]: Half life in Wistar rat at 300 mg/kg, po. It is filed as ADME, organism-based. The settings on record: in vivo.
Series [8] deals with T1, G-protein coupled bile acid receptor 1 (Homo sapiens, UniProt Q8TDU6).
T1 sequence (Q8TDU6 whole entry): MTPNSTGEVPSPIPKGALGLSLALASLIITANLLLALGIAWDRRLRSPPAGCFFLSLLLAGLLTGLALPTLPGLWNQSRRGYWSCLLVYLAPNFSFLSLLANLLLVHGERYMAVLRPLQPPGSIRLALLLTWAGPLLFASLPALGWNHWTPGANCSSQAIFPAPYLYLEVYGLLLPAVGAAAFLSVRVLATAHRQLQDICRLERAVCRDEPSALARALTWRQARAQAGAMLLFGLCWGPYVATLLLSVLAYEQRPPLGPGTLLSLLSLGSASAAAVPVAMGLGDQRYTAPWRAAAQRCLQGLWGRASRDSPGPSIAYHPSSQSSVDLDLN
The experiment in a line: Agonist activity at human GPBAR1 expressed in Jurkat cells assessed as increase in intracellular cAMP level incubated for 1 hr by fluorescence based assay. The format is functional, cell-based.

The target of series [9] is T2, Nuclear receptor subfamily 1 group I member 2 (Homo sapiens, UniProt O75469).
T2 sequence (O75469 whole entry): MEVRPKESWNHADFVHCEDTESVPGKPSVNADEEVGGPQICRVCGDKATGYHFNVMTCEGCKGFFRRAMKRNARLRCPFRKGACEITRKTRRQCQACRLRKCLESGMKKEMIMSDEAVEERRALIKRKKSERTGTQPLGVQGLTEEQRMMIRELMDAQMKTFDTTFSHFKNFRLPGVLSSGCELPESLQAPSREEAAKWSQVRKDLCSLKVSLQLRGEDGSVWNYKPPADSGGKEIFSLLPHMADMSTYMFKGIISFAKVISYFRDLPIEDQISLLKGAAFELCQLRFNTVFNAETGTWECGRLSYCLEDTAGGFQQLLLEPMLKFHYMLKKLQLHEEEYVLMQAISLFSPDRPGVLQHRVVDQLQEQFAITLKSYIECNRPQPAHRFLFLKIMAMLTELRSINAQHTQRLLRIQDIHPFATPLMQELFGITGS
Briefly: Agonist activity at PXR (unknown origin) incubated for 2 hrs by TR-FRET assay.

Series [10] concerns the target T3, Peroxisome proliferator-activated receptor gamma (Homo sapiens, UniProt P37231).
T3 sequence (P37231 whole entry): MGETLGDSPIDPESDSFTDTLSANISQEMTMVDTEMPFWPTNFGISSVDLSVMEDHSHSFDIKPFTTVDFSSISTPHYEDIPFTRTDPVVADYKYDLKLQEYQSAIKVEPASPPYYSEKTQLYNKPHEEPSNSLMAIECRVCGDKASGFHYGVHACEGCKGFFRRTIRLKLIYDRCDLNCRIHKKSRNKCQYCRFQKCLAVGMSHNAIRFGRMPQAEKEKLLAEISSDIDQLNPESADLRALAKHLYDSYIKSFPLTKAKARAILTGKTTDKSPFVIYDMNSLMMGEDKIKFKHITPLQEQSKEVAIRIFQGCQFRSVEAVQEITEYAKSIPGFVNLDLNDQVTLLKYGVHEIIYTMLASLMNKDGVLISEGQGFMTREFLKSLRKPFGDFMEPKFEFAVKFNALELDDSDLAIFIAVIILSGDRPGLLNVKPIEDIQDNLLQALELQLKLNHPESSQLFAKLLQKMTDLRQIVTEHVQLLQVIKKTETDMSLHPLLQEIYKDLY
Briefly: Agonist activity at GAL4-fused PPARgamma (unknown origin) expressed in HEK293T cells incubated for 24 by BrightGlo reagent based assay. It is filed as cell-based.

For series [11], the system named is Rattus norvegicus. The experiment in a line: In-vivo agonist activity at FXR in orally dosed Han Wistar rat assessed as upregulation of BSEP mRNA level in liver administered via oral gavage once daily for 14 days measured post last dose by qRT-PCR analysis. The format is functional, organism-based.
A short description of series [12]: Clearance in dog at 0.5 mg/kg, iv. The settings on record: in vivo. It is filed as ADME, organism-based, Canis lupus familiaris.
The nature of series [13]: Half life in dog at 0.5 mg/kg, iv. The format is ADME, organism-based, Canis lupus familiaris. The settings on record: in vivo.
The nature of series [14]: Oral bioavailability in mouse at 10 mg/kg. The settings on record: in vivo. It is filed as ADME, organism-based.

`Cn1nc(C(=O)N(Cc2ccccc2)Cc2ccc(C(=O)O)cc2)c2c1-c1cc(Cl)ccc1OC2` [NIDUFEXOR] gave a solubility in [1] of 3 µM (≈ 1.46 µg/mL). For the same compound, the Vd in [2] amounted to 0.8 L/kg. Further, the values for the bioavailability in series [3], in series [4] and in series [14] were 51%, 52% and 115%, respectively. The compound further gave a peak concentration (Cmax) in series [5] of 12.4 µM. The half-life is 5.7 h in [6], 6.3 h in series [7] and 6.8 h in [13]. Moreover, the concentration for a half-maximal effect (EC50) in series [8] is greater than 80 µM; in [9], greater than 30 µM; in series [10] it was greater than 10 µM. Also, the Activity entry in series [11] is “Dose-dependent effect”. Besides, in [12], the clearance worked out at 3.6 mL/min/kg.
